Assays:
Leishmania donovani [1] = assay: Antileishmanial activity against promastigote forms of Leishmania donovani MHOM/ET/1967/HU3 assessed as reduction in cell viability after 72 hrs by MTT assay; assay type: functional, organism-based; settings: MHOM/ET/1967/HU3, 72 h
[2] = Selectivity index, ratio of HC50 for human red blood cells to IC50 for promastigote forms of Leishmania donovani MHOM/ET/1967/HU3; assay type: toxicity; settings: read-out: Selectivity Index
Leishmania donovani [3] = assay: Potency index, ratio of Amphotericin B IC50 to compound IC50 for promastigote forms of Leishmania donovani MHOM/ET/1967/HU3; assay type: functional
[4] = Hemolytic activity in human red blood cells; assay type: cell-based, Erythrocyte; settings: red blood cells (erythrocytes)

Structure (SMILES)	IC50 (Leishmania donovani [1]) [µM]	selectivity ratio [2]	Ratio IC50 (Leishmania donovani [3])	HC50 [4] [µM]
C=C(C(=O)OCCOC(=O)C(=C)C(O)c1ccc([N+](=O)[O-])cc1)C(O)c1ccc([N+](=O)[O-])cc1 (centres undefined)	44.6	–	–	–
C=C(C(=O)OC)C(O)c1ccc2ccccc2c1 (centres undefined)	185	–	–	–
C=C(C(=O)OC)C(O)c1ccc(Br)cc1 (centres undefined)	197	–	–	–
C=C(C(=O)OCCOC(=O)C(=C)C(O)c1ccccc1)C(O)c1ccccc1 (centres undefined)	126	–	–	–
C=C(C(=O)OCCOC(=O)C(=C)C(O)c1ccc(F)cc1)C(O)c1ccc(F)cc1 (centres undefined)	42.4	–	–	–
C=C(C(=O)OCCOC(=O)C(=C)C(O)c1ccc(Br)cc1)C(O)c1ccc(Br)cc1 (centres undefined)	0.5	> 400	1.24	> 200
C=C(C(=O)OC)C(O)c1ccc([N+](=O)[O-])cc1 (centres undefined)	165	–	–	–
C=C(C(=O)OCCOC(=O)C(=C)C(O)c1ccccc1[N+](=O)[O-])C(O)c1ccccc1[N+](=O)[O-] (centres undefined)	24.8	–	–	–
C=C(C(=O)OCCOC(=O)C(=C)C(O)c1ccc2ccccc2c1)C(O)c1ccc2ccccc2c1 (centres undefined)	39	–	–	–
C=C(C(=O)OC)C(O)c1ccccc1 (centres undefined)	953	–	–	–
C=C(C(=O)OC)C(O)c1ccc(Cl)cc1 (centres undefined)	202	–	–	–
C=C(C(=O)OC)C(O)c1ccccc1[N+](=O)[O-] (centres undefined)	690	–	–	–
C=C(C(=O)OC)C(O)c1cccc([N+](=O)[O-])c1 (centres undefined)	161	–	–	–
C[C@@H]1[C@H](O)[C@@H](C)/C=C/C=C/C=C/C=C/C=C/C=C/C=C/[C@H](O[C@@H]2O[C@H](C)[C@@H](O)[C@H](N)[C@@H]2O)C[C@@H]2O[C@](O)(C[C@@H](O)C[C@@H](O)[C@H](O)CC[C@@H](O)C[C@@H](O)CC(=O)O[C@H]1C)C[C@H](O)[C@H]2C(=O)O [AMPHOTERICIN B]	0.62	18.7	–	11.6
C=C(C(=O)OCCOC(=O)C(=C)C(O)c1ccc(Cl)cc1)C(O)c1ccc(Cl)cc1 (centres undefined)	10.5	> 19.1	–	> 200
C=C(C(=O)OC)C(O)c1ccc(F)cc1 (centres undefined)	610	–	–	–
C=C(C(=O)OCCOC(=O)C(=C)C(O)c1cccc([N+](=O)[O-])c1)C(O)c1cccc([N+](=O)[O-])c1 (centres undefined)	43	–	–	–
